Reference: patent US8946215B2, “Hydroxy-substituted imidazo[1,2-a]pyridinecarboxamides and their use” (Bayer Pharma Aktiengesellschaft, priority 2012, dated 2015)

Each compound was assayed against T1, recombinant guanylate cyclase reporter cell line (Rattus norvegicus, UniProt P19686+P20595) (assay: Action on recombinant guanylate cyclase reporter cell line). Conditions: in some cases mean values obtained from individual determinations.
T1 construct: expressed in transfected cells
T1 sequence (P20595 1-619): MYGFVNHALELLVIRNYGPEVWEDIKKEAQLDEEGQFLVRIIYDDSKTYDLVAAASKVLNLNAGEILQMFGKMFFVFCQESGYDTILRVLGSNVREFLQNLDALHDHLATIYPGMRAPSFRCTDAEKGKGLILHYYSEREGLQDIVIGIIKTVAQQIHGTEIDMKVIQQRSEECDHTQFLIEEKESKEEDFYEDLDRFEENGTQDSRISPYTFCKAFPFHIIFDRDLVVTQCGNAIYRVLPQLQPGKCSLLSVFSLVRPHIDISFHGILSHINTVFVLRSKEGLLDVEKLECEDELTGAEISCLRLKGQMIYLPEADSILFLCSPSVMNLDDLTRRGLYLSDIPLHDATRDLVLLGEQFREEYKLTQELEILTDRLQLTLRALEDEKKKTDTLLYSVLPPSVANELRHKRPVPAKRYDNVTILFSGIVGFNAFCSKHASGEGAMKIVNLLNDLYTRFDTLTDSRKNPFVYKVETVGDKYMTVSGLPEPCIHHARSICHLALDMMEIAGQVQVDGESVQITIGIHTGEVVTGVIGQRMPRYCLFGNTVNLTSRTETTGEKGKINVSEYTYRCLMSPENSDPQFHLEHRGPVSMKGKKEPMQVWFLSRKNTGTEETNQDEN
T1 sequence (P19686 1-690): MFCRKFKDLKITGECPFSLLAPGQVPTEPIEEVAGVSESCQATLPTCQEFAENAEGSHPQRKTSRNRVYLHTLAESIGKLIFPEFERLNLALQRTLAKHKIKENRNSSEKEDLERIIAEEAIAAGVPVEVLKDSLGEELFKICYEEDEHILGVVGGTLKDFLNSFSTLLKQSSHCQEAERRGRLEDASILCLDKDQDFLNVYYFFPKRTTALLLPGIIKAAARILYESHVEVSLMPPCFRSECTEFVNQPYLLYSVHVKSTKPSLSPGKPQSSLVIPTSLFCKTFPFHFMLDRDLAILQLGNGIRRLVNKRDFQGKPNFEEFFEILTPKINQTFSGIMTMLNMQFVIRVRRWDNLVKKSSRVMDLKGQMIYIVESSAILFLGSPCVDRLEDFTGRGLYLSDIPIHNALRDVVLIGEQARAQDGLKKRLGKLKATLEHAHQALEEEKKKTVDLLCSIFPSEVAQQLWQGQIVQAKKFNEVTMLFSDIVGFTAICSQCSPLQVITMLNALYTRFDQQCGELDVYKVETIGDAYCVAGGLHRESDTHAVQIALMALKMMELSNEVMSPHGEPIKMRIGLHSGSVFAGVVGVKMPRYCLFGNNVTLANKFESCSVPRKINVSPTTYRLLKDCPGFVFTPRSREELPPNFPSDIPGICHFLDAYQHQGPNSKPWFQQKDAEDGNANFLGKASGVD
Type: cell-based
Method: B-2. Action on Recombinant Guanylate Cyclase Reporter Cell Line
The cellular action of the compounds according to the invention is determined on a recombinant guanylate cyclase reporter cell line, as described in F. Wunder et al., Anal. Biochem. 339, 104-112 (2005).
Representative values (MEC=minimal effective concentration) for the compounds according to the invention are shown in the following table (in some cases as mean values obtained from individual determinations): […]

Row | Compound | MEC (minimal effective concentration) [µM]
1 | Cc1nc2c(OCc3c(F)cccc3F)cccn2c1C(=O)NC(CO)CC(F)(F)F (single isomer, unassigned; ent-8) [Example 121, ent-8-[(2,6-Difluorobenzyl)oxy]-2-methyl-N-(4,4,4-trifluoro-1-hydroxybutan-2-yl)imidazo[1,2-a]-pyridine-3-carboxamide] | 0.03
2 | Cc1nc2c(OCc3c(F)cccc3F)cccn2c1C(=O)NC(CO)CCCC(F)(F)F (single isomer, unassigned; ent-8) [Example 123, ent-8-[(2,6-Difluorobenzyl)oxy]-2-methyl-N-(6,6,6-trifluoro-1-hydroxyhexan-2-yl)imidazo[1,2-a]-pyridine-3-carboxamide] | 0.03
3 | CCOCC(CO)NC(=O)c1c(C)nc2c(OCc3c(F)cccc3F)cccn12 (single isomer, unassigned; ent-8) [Example 161, ent-8-[(2,6-Difluorobenzyl)oxy]-N-(1-ethoxy-3-hydroxypropan-2-yl)-2-methylimidazo[1,2-a]-pyridine-3-carboxamide (enantiomer A)] | 1.0
4 | CCCC[C@H](CO)NC(=O)c1c(C)nc2c(OCc3c(F)cccc3F)cccn12 [Example 1, 8-[(2,6-Difluorobenzyl)oxy]-N-[(2R)-1-hydroxyhexan-2-yl]-2-methylimidazo[1,2-a]pyridine-3-carboxamide] | 0.05
5 | CCCC[C@H](CO)NC(=O)c1c(C)nc2c(OCc3c(F)ccc(F)c3F)cccn12 [Example 2] | 0.03
6 | CCCC[C@H](CO)NC(=O)c1c(C)nc2c(OCc3c(F)cccc3Cl)cccn12 [Example 3] | 0.1
7 | CCCC[C@H](CO)NC(=O)c1c(C)nc2c(OCc3ccccc3Cl)cccn12 [Example 4] | 0.1
8 | CCCC[C@H](CO)NC(=O)c1c(C)nc2c(OCc3ccccc3F)cccn12 [Example 5] | 0.1
9 | CCCC[C@H](CO)NC(=O)c1c(C)nc2c(OCc3cccc(F)c3)cccn12 [Example 6] | 0.1
10 | CCCC[C@H](CO)NC(=O)c1c(C)nc2c(OCc3c(F)c(F)cc(F)c3F)cccn12 [Example 7] | 0.3
11 | CCCC[C@H](CO)NC(=O)c1c(C)nc2c(OCc3c(Cl)cccc3Cl)cccn12 [Example 8] | 0.3

Next, values leading:

Row | MEC (minimal effective concentration) [µM] | Compound
12 | 0.03 | Cc1nc2c(OCc3c(F)cccc3F)cccn2c1C(=O)NC(CO)CCC(F)(F)F (single isomer, unassigned; ent-8) [Example 122, ent-8-[(2,6-Difluorobenzyl)oxy]-2-methyl-N-(5,5,5-trifluoro-1-hydroxypentan-2-yl)imidazo[1,2-a]-pyridine-3-carboxamide]
13 | 0.03 | Cc1nc2c(OCc3c(F)cccc3F)cccn2c1C(=O)NC(CC(F)(F)F)C(C)(C)O (single isomer, unassigned; ent-8) [Example 154, ent-8-[(2,6-Difluorobenzyl)oxy]-2-methyl-N-(1,1,1-trifluoro-4-hydroxy-4-methylpentan-3-yl)-imidazo[1,2-a]pyridine-3-carboxamide]
14 | 0.1 | Cc1nc2c(OCc3c(F)cccc3F)cccn2c1C(=O)NC(CCC(F)(F)F)C(C)(C)O (single isomer, unassigned; ent-8) [Example 155, ent-8-[(2,6-Difluorobenzyl)oxy]-2-methyl-N-(6,6,6-trifluoro-2-hydroxy-2-methylhexan-3-yl)-imidazo[1,2-a]pyridine-3-carboxamide]
15 | 0.03 | Cc1nc2c(OCc3c(F)cccc3F)cccn2c1C(=O)NC(CCCC(F)(F)F)C(C)(C)O (single isomer, unassigned; ent-8) [Example 156, ent-8-[(2,6-Difluorobenzyl)oxy]-2-methyl-N-(7,7,7-trifluoro-2-hydroxy-2-methylheptan-3-yl)-imidazo[1,2-a]pyridine-3-carboxamide]
16 | 1.0 | CCCCC(NC(=O)c1c(C)nc2c(OC(C)c3c(F)cccc3F)cc(C)cn12)C(C)(C)O (single isomer, unassigned; ent-8) [Example 171, ent-8-[1-(2,6-Difluorophenyl)ethoxy]-N-(2-hydroxy-2-methylheptan-3-yl)-2,6-dimethylimidazo-[1,2-a]pyridine-3-carboxamide]
17 | 0.65 | Cc1nc2c(OCc3ncccc3F)cccn2c1C(=O)NC(CCCC(F)(F)F)C(C)(C)O (single isomer, unassigned; ent-8) [Example 182, ent-8-[(3-fluoropyridin-2-yl)methoxy]-2-methyl-N-(7,7,7-trifluoro-2-hydroxy-2-methylheptan-3-yl)imidazo[1,2-a]pyridine-3-carboxamide (enantiomer A)]
18 | 0.3 | Cc1nc2c(OCc3ncccc3F)cccn2c1C(=O)NC(CCCC(F)(F)F)C(C)(C)O (single isomer, unassigned; ent-8) [Example 183, ent-8-[(3-fluoropyridin-2-yl)methoxy]-2-methyl-N-(7,7,7-trifluoro-2-hydroxy-2-methylheptan-3-yl)imidazo[1,2-a]pyridine-3-carboxamide (enantiomer B)]
19 | 0.3 | Cc1cc(OCc2ncccc2F)c2nc(C)c(C(=O)NC(CC(F)(F)F)C(C)(C)O)n2c1 (single isomer, unassigned; ent-8) [Example 185, ent-8-[(3-fluoropyridin-2-yl)methoxy]-2,6-dimethyl-N-(1,1,1-trifluoro-4-hydroxy-4-methylpentan-3-yl)imidazo[1,2-a]pyridine-3-carboxamide (enantiomer B)]
20 | 1 | Cc1cc(OCc2c(F)cncc2F)c2nc(C)c(C(=O)NC(CCCC(F)(F)F)C(C)(C)O)n2c1 (single isomer, unassigned; ent-8) [Example 189, ent-8-[(3,5-difluoropyridine-4-yl)methoxy]-2,6-dimethyl-N-(7,7,7-trifluoro-2-hydroxy-2-methylheptan-3-yl)imidazo[1,2-a]pyridine-3-carboxamide (enantiomer A)]
21 | 3 | Cc1cc(OCc2ncccc2F)c2nc(C)c(C(=O)NC(CCCC(F)(F)C(F)(F)F)C(C)(C)O)n2c1 (single isomer, unassigned; ent-8) [Example 191, ent-8-[(3-fluoropyridin-2-yl)methoxy]-2,6-dimethyl-N-(7,7,8,8,8-pentafluoro-2-hydroxy-2-methyloctan-3-yl)imidazo[1,2-a]pyridine-3-carboxamide (enantiomer A)]
22 | 2 | Cc1cc(OCc2ncccc2F)c2nc(C)c(C(=O)NC(CCCC(F)(F)C(F)(F)F)C(C)(C)O)n2c1 (single isomer, unassigned; ent-8) [Example 192, ent-8-[(3-fluoropyridin-2-yl)methoxy]-2,6-dimethyl-N-(7,7,8,8,8-pentafluoro-2-hydroxy-2-methyloctan-3-yl)imidazo[1,2-a]pyridine-3-carboxamide (enantiomer B)]
23 | 1 | Cc1cc(OCc2c(F)cncc2F)c2nc(C)c(C(=O)NC(CCC(F)(F)C(F)(F)F)C(C)(C)O)n2c1 (single isomer, unassigned; ent-8) [Example 193, ent-8-[(3,5-difluoropyridine-4-yl)methoxy]-2,6-dimethyl-N-(6,6,7,7,7-pentafluoro-2-hydroxy-2-methylheptan-3-yl)imidazo[1,2-a]pyridine-3-carboxamide (enantiomer A)]
24 | 3 | Cc1cc(OCc2ncccc2F)c2nc(C)c(C(=O)NC(CCC(O)C(F)(F)F)C(C)(C)O)n2c1 (single isomer, unassigned; ent-8) [Example 196, ent-8-[(3-fluoropyridin-2-yl)methoxy]-2,6-dimethyl-N-(7,7,7-trifluoro-2,6-dihydroxy-2-methylheptan-3-yl)imidazo[1,2-a]pyridine-3-carboxamide (enantiomer D)]
